PubChem BioAssay (NCI)
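Where inhibition never reached the appropriate level, the endpoint shown equals the highest concentration tested. Otherwise, values were interpolated linearly from a five-concentration, 48-hour dose response in 96-well plates. Definition used: TGI = concentration required for complete inhibition of growth.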

Experiments:
Test in all cases: inhibition of tumour cell growth, NCI panel, 48 h
786-0 renal = system: 786-0 renal
A498 renal = system: A498 renal
A549 NSCLC = system: A549 NSCLC
ACHN renal = system: ACHN renal
BT-549 breast = system: BT-549 breast
CAKI-1 renal = system: CAKI-1 renal
CCRF-CEM leukemia = system: CCRF-CEM leukemia
COLO 205 colon = system: COLO 205 colon
DU-145 prostate = system: DU-145 prostate
EKVX NSCLC = system: EKVX NSCLC
HCC-2998 colon = system: HCC-2998 colon
HCT-116 colon = system: HCT-116 colon
HCT-15 colon = system: HCT-15 colon
HL-60(TB) leukemia = system: HL-60(TB) leukemia
HOP-62 NSCLC = system: HOP-62 NSCLC
HOP-92 NSCLC = system: HOP-92 NSCLC
HS 578T breast = system: HS 578T breast
HT29 colon = system: HT29 colon
IGROV1 ovarian = system: IGROV1 ovarian
K-562 leukemia = system: K-562 leukemia
KM12 colon = system: KM12 colon
LOX IMVI melanoma = system: LOX IMVI melanoma
M14 melanoma = system: M14 melanoma
MALME-3M melanoma = system: MALME-3M melanoma
MCF7 breast = system: MCF7 breast
MDA-MB-231 breast = system: MDA-MB-231 breast
MDA-MB-435 = system: MDA-MB-435
MDA-N = system: MDA-N
MOLT-4 leukemia = system: MOLT-4 leukemia
NCI-H226 lung = system: NCI-H226 lung
NCI-H23 lung = system: NCI-H23 lung
NCI-H522 lung = system: NCI-H522 lung
NCI/ADR-RES ovarian = system: NCI/ADR-RES ovarian
OVCAR-3 ovarian = system: OVCAR-3 ovarian
OVCAR-4 ovarian = system: OVCAR-4 ovarian
OVCAR-5 ovarian = system: OVCAR-5 ovarian
OVCAR-8 ovarian = system: OVCAR-8 ovarian
PC-3 prostate = system: PC-3 prostate
RPMI-8226 leukemia = system: RPMI-8226 leukemia
RXF 393 renal = system: RXF 393 renal
SF-268 CNS = system: SF-268 CNS
SF-295 CNS = system: SF-295 CNS
SF-539 CNS = system: SF-539 CNS
SK-MEL-2 melanoma = system: SK-MEL-2 melanoma
SK-MEL-28 melanoma = system: SK-MEL-28 melanoma
SK-MEL-5 melanoma = system: SK-MEL-5 melanoma
SK-OV-3 ovarian = system: SK-OV-3 ovarian
SN12C renal = system: SN12C renal
SNB-19 CNS = system: SNB-19 CNS
SNB-75 CNS = system: SNB-75 CNS
SR leukemia = system: SR leukemia
SW-620 colon = system: SW-620 colon
T-47D breast = system: T-47D breast
TK-10 renal = system: TK-10 renal
U251 CNS = system: U251 CNS
UACC-257 melanoma = system: UACC-257 melanoma
UACC-62 melanoma = system: UACC-62 melanoma
UO-31 renal = system: UO-31 renal

SMILES: COC(=O)c1ccc2cc(O)c(O)cc2c1
- TGI (786-0 renal): > 100 µM
- TGI (A498 renal): > 100 µM
- TGI (A549 NSCLC): > 100 µM
- TGI (ACHN renal): > 100 µM
- TGI (BT-549 breast): > 90.6 µM
- TGI (CAKI-1 renal): > 100 µM
- TGI (CCRF-CEM leukemia): > 60.4 µM
- TGI (COLO 205 colon): > 100 µM
- TGI (DU-145 prostate): > 100 µM
- TGI (EKVX NSCLC): > 100 µM
- TGI (HCC-2998 colon): > 100 µM
- TGI (HCT-116 colon): > 100 µM
- TGI (HCT-15 colon): > 100 µM
- TGI (HL-60(TB) leukemia): > 100 µM
- TGI (HOP-62 NSCLC): > 100 µM
- TGI (HOP-92 NSCLC): > 100 µM
- TGI (HS 578T breast): > 100 µM
- TGI (HT29 colon): > 100 µM
- TGI (IGROV1 ovarian): > 100 µM
- TGI (K-562 leukemia): > 100 µM
- TGI (KM12 colon): > 100 µM
- TGI (LOX IMVI melanoma): > 100 µM
- TGI (M14 melanoma): > 100 µM
- TGI (MALME-3M melanoma): > 79 µM
- TGI (MCF7 breast): > 100 µM
- TGI (MDA-MB-231 breast): > 100 µM
- TGI (MDA-MB-435): > 100 µM
- TGI (MDA-N): > 100 µM
- TGI (MOLT-4 leukemia): > 68.8 µM
- TGI (NCI-H226 lung): > 100 µM
- TGI (NCI-H23 lung): > 82 µM
- TGI (NCI-H522 lung): > 64.7 µM
- TGI (NCI/ADR-RES ovarian): > 78.2 µM
- TGI (OVCAR-3 ovarian): > 100 µM
- TGI (OVCAR-4 ovarian): > 100 µM
- TGI (OVCAR-5 ovarian): > 100 µM
- TGI (OVCAR-8 ovarian): > 91.3 µM
- TGI (PC-3 prostate): > 100 µM
- TGI (RPMI-8226 leukemia): > 100 µM
- TGI (RXF 393 renal): > 100 µM
- TGI (SF-268 CNS): > 81.1 µM
- TGI (SF-295 CNS): > 100 µM
- TGI (SF-539 CNS): > 100 µM
- TGI (SK-MEL-2 melanoma): > 100 µM
- TGI (SK-MEL-28 melanoma): > 100 µM
- TGI (SK-MEL-5 melanoma): > 70.2 µM
- TGI (SK-OV-3 ovarian): > 100 µM
- TGI (SN12C renal): > 100 µM
- TGI (SNB-19 CNS): > 100 µM
- TGI (SNB-75 CNS): > 100 µM
- TGI (SR leukemia): > 60 µM
- TGI (SW-620 colon): > 100 µM
- TGI (T-47D breast): > 100 µM
- TGI (TK-10 renal): > 100 µM
- TGI (U251 CNS): > 100 µM
- TGI (UACC-257 melanoma): > 96.7 µM
- TGI (UACC-62 melanoma): > 79.3 µM
- TGI (UO-31 renal): 55.3 µM
